Data set [1] can be described thus: Measurement of log P values by HPLC on reversed phase columns (EEC directive 79/831 Annex V.A8). Format: physicochemical. Particulars: for chromatographic logP: pH 2.7; for logP: method [a]: LC-MS at pH 2.7, 0.1% formic acid in water / acetonitrile, linear gradient 10% to 95% acetonitrile, Table 1 active ingredients.
Another data set relates to Alternaria brassicae. The data set is described as follows: In vivo preventive test on Alternaria brassicae (leaf spot on radish). Particulars: dose of 500 ppm; preventive spray on radish plants; grading 6 days after contamination vs control plants. As to the method: Radish plants (“Pernod Clair” variety), sown in starter cups on a 50/50 peat soil-pozzolana substrate and grown at 17° C., are treated at the cotyledon stage by spraying with the active ingredient prepared as described above. Plants, used as controls, are treated with the mixture of acetone/tween/DMSO/water not containing the active material. After 24 hours, the plants are contaminated by spraying the cotyledons with an aqueous suspension of Alternaria brassicae spores (50 000 spores per ml). The spores are collected from a 15-day-old culture. The contaminated radish plants are incubated at 20° C. and at 100% relative humidity. Grading (% of efficacy) is carried out 6 days after the contamination, in comparison with the control plants.

Another data set has as its system Puccinia recondita. Kind of data set: In vivo preventive test on Puccinia recondita (brown rust on wheat). The settings on record: dose of 500 ppm; preventive spray on wheat plants; grading 12 days after contamination vs control plants. How it is done: Wheat plants (“Scipion” variety), sown in starter cups on a 50/50 peat soil-pozzolana substrate and grown at 22° C., are treated at the 1-leaf stage (10 cm height) by spraying with the active ingredient prepared as described above. Plants, used as controls, are treated with the mixture of acetone/tween/DMSO/water not containing the active material. After 24 hours, the plants are contaminated by spraying the leaves with an aqueous suspension of Puccinia recondita spores (100 000 spores per ml). […] The contaminated wheat plants are incubated for 24 hours at 20° C. and at 100% relative humidity, and then for 10 days at 20° C. and at 70-80% relative humidity. Grading (% of efficacy) is carried out 12 days after the contamination, in comparison with the control plants.

A further data set relates to Septoria tritici. Kind of data set: In vivo preventive test on Septoria tritici (leaf spot on wheat). The settings on record: dose of 500 ppm; preventive spray on wheat plants; grading 24 days after contamination vs control plants. How it is done:
Wheat plants (“Scipion” variety), sown in starter cups on a 50/50 peat soil-pozzolana substrate and grown at 22° C., are treated at the 1-leaf stage (10 cm height) by spraying with the active ingredient prepared as described above. Plants, used as controls, are treated with the mixture of acetone/tween/DMSO/water not containing the active material. After 24 hours, the plants are contaminated by spraying the leaves with an aqueous suspension of cryopreserved Septoria tritici spores (500 000 spores per ml). The contaminated wheat plants are incubated for 72 hours at 18° C. and at 100% relative humidity, and then for 21 days at 90% relative humidity. Grading (% of efficacy) is carried out 24 days after the contamination, in comparison with the control plants.

Another data set concerns Uromyces appendiculatus. Kind of data set: In vivo preventive test on Uromyces appendiculatus (bean rust). Particulars: dose of 500 ppm; preventive spray on bean plants; grading 11 days after contamination vs control plants. As to the method:
Bean plants (“Saxa” variety), sown in starter cups on a 50/50 peat soil-pozzolana substrate and grown at 24° C., are treated at the 2-leaf stage (9 cm height) by spraying with the active ingredient prepared as described above. Plants, used as controls, are treated with the mixture of acetone/tween/DMSO/water not containing the active material. After 24 hours, the plants are contaminated by spraying the leaves with an aqueous suspension of Uromyces appendiculatus spores (150 000 spores per ml). […] The contaminated bean plants are incubated for 24 hours at 20° C. and at 100% relative humidity, and then for 10 days at 20° C. and at 70-80% relative humidity. Grading (% of efficacy) is carried out 11 days after the contamination, in comparison with the control plants.

Data set [2] deals with Fusarium nivale (var. majus). Kind of data set: In vivo Fusarium nivale (var. majus)-test (wheat)/preventive. Particulars: concentration of 500 ppm of active ingredient; preventive spray on wheat plants; evaluated 5 days after inoculation; 0% = untreated control, 100% = no disease. As to the method: • Solvent: 49 parts by weight of N,N-dimethylacetamide • Emulsifier: 1 part by weight of alkylaryl polyglycol ether To produce a suitable preparation of active compound, 1 part by weight of active compound or active compound combination is mixed with the stated amounts of solvent and emulsifier, and the concentrate is diluted with water to the desired concentration. To test for preventive activity, young plants are sprayed with the preparation of active compound or active compound combination at the stated rate of application. After the spray coating has been dried, the plants are slightly injured by using a sandblast and afterwards they are sprayed with a conidia suspension of Fusarium nivale (var. majus). The plants are placed in the greenhouse under a translucent incubation cabinet at a temperature of approximately 10° C. and a relative atmospheric humidity of approximately 100%.

The next data set relates to Phakopsora pachyrhizi. Kind of data set: In vivo Phakopsora test (soybeans)/preventive. The settings on record: concentration of 10 ppm of active ingredient; preventive spray on soybean plants; evaluated 7 days after inoculation; 0% = untreated control, 100% = no disease. How it is done:
To produce a suitable preparation of active compound, 1 part by weight of active compound is mixed with the stated amounts of solvent and emulsifier, and the concentrate is diluted with water to the desired concentration. To test for preventive activity, young plants are sprayed with the preparation of active compound at the stated rate of application. After the spray coating has dried on, the plants are inoculated with an aqueous spore suspension of the causal agent of soybean rust (Phakopsora pachyrhizi) and stay for 24 h without light in an incubation cabinet at approximately 24° C. and a relative atmospheric humidity of 95%. The plants remain in the incubation cabinet at approximately 24° C. and a relative atmospheric humidity of approximately 80% and a day/night interval of 12 h.

For a further data set, the system named is Botrytis cinerea. Kind of data set: In vivo preventive test on Botrytis cinerea (grey mould). Particulars: dose of 500 ppm; preventive spray on gherkin plants; grading 4 to 5 days after contamination vs control plants. How it is done: Gherkin plants (“Vert petit de Paris” variety), sown in starter cups on a 50/50 peat soil-pozzolana substrate and grown at 24° C., are treated at the Z11 cotyledon stage by spraying with the active ingredient prepared as described above. Plants, used as controls, are treated with the mixture of acetone/tween/DMSO/water not containing the active material. After 24 hours, the plants are contaminated by spraying the cotyledons with an aqueous suspension of cryopreserved Botrytis cinerea spores (50 000 spores per ml). The spores are suspended in a nutrient solution composed of 10 g/L of PDB, 50 g/L of D-Fructose, 2 g/L of NH4NO3 and 1 g/L of KH2PO4. The contaminated gherkin plants are incubated at 17° C. and at 90% relative humidity. Grading (% of efficacy) is carried out 4 to 5 days after the contamination, in comparison with the control plants.

A further data set has as its system Pyrenophora teres. The data set is described as follows: In vivo preventive test on Pyrenophora teres (net blotch on barley). Particulars: dose of 500 ppm; preventive spray on barley plants; grading 14 days after contamination vs control plants. How it is done: Barley plants (“Plaisant” variety), sown in starter cups on a 50/50 peat soil-pozzolana substrate and grown at 22° C., are treated at the 1-leaf stage (10 cm height) by spraying with the active ingredient prepared as described above. Plants, used as controls, are treated with the mixture of acetone/tween/DMSO/water not containing the active material. After 24 hours, the plants are contaminated by spraying the leaves with an aqueous suspension of Pyrenophora teres spores (12 000 spores per ml). The spores are collected from a 12-day-old culture. The contaminated barley plants are incubated for 48 hours at 20° C. and at 100% relative humidity, and then for 12 days at 20° C. at 70-80% relative humidity. Grading (% of efficacy) is carried out 14 days after the contamination, in comparison with the control plants.

For a further data set, the system named is Sphaerotheca fuliginea. The data set is described as follows: In vivo preventive test on Sphaerotheca fuliginea (powdery mildew on cucurbits). Particulars: dose of 500 ppm; preventive spray on gherkin plants; grading 12 days after contamination vs control plants. How it is done: Gherkin plants (“Vert petit de Paris” variety), sown in starter cups on a 50/50 peat soil-pozzolana substrate and grown at 24° C., are treated at the Z11 cotyledon stage by spraying with the active ingredient prepared as described above. Plants, used as controls, are treated with the mixture of acetone/tween/DMSO/water not containing the active material. After 24 hours, the plants are contaminated by spraying the cotyledons with an aqueous suspension of Sphaerotheca fuliginea spores (100 000 spores per ml). The spores are collected from infected plants. The contaminated gherkin plants are incubated at about 20° C. and at 70-80% relative humidity. Grading (% of efficacy) is carried out 12 days after the contamination, in comparison with the control plants.

The next data set deals with Pyricularia oryzae. Format: in vivo. The settings on record: dose of 500 ppm; preventive spray on rice plants; grading 6 days after contamination vs control plants.

For the molecule `Cn1nc(C(F)F)c(C(=O)Nc2cccc3c2CCCC3(C)C)c1F` [Example 1, 5-fluoro-3-(difluoromethyl)-N-(5,5-dimethyl-5,6,7,8-tetrahydronaphthalen-1-yl)-1-methyl-1H-pyrazole-4-carboxamide], the chromatographic logP in [1] amounted to 3.67. Moreover, the Eff. % stood at 93% in the data set with Alternaria brassicae; 100% with Puccinia recondita; 88% in the data set with Septoria tritici; 100% with Uromyces appendiculatus; 92% in data set [2].
`Cn1nc(C(F)F)c(C(=O)Nc2cccc3c2CCCC3(C)C)c1Cl` [Example 2]: in [1], the logP is 3.89[a]. For the same molecule, the Eff. % in the data set with Puccinia recondita is given as 98%; in the data set on Uromyces appendiculatus, 100%; in the data set on Phakopsora pachyrhizi it was 96%; in data set [2] it was 86%.
In the case of `Cn1nc(C(F)F)c(C(=O)Nc2cccc3c2CCC(C)(C)C3)c1F` [Example 22], the logP in data set [1] is 3.79[a]. Also, the Eff. % in the data set on Alternaria brassicae came to 80%; in the data set on Botrytis cinerea, 99%; in the data set with Pyrenophora teres, 70%; in the data set on Puccinia recondita, 94%; with Septoria tritici, 83%; in the data set with Sphaerotheca fuliginea, 100%. Also, in the data set with Uromyces appendiculatus, the Eff. % turned out to be 100%.
Turning to `Cn1nc(C(F)F)c(C(=O)Nc2cccc3c2CC(C)(C)CC3)c1Cl` [Example 14], the logP in [1] is 3.9[a]. In addition, the Eff. % is given as 71% with Alternaria brassicae; 97% in the data set with Pyrenophora teres; 100% in the data set on Puccinia recondita; 90% in the data set on Septoria tritici; 98% with Sphaerotheca fuliginea; 99% in the data set on Uromyces appendiculatus.
As to `Cn1nc(C(F)F)c(C(=O)Nc2cccc3c2CCC(C)(C)C3)c1Cl` [Example 25, 5-chloro-3-(difluoromethyl)-N-(6,6-dimethyl-5,6,7,8-tetrahydronaphthalen-1-yl)-1-methyl-1H-pyrazole-4-carboxamide], the chromatographic logP in data set [1] was 4.04. Further, the Eff. % stood at 70% with Alternaria brassicae; 97% with Botrytis cinerea; 98% with Puccinia recondita; 100% in the data set with Septoria tritici; 100% in the data set on Uromyces appendiculatus.
Turning to `CC1c2cccc(NC(=O)c3c(C(F)F)nn(C)c3F)c2CCC1(C)C` (racemic) [Example 12], the logP in [1] is 4.11[a]. Also, the Eff. % in the data set on Pyrenophora teres is listed as 81%; with Pyricularia oryzae, 71%; in the data set on Puccinia recondita it was 100%; in the data set on Sphaerotheca fuliginea, 100%; with Uromyces appendiculatus, 100%.
For `C=C1c2cccc(NC(=O)c3c(C(F)F)nn(C)c3F)c2CCC1(C)C` [Example 6], the logP in [1] was 3.87[a]. Moreover, the Eff. % is given as 97% in the data set with Alternaria brassicae; 97% with Botrytis cinerea; 80% in the data set on Pyrenophora teres; 89% with Puccinia recondita; 75% in the data set on Septoria tritici; 70% with Sphaerotheca fuliginea. The molecule further displayed an Eff. % in the data set with Uromyces appendiculatus of 97%.
`Cn1nc(C(F)F)c(C(=O)Nc2cccc3c2CC(C)(C)CC3)c1F` [Example 13]: in [1], the logP was 3.72[a]. The Eff. % came to 75% in the data set on Pyrenophora teres; 97% with Puccinia recondita; 95% with Septoria tritici; 98% in the data set on Sphaerotheca fuliginea; 100% in the data set on Uromyces appendiculatus.

By chromatographic logP is commonly meant lipophilicity estimated from chromatographic retention.

Values taken from US9204646B2, “Pyrazole tetrahydronaphthyl carboxamides” (BAYER CROPSCIENCE AG, priority 2012, dated 2015).
